Source: US8426447B2, “Spiro-tricyclic ring compounds as beta-secretase modulators and methods of use” (Amgen Inc., priority 2008, dated 2013)

How the values were obtained:
[1] = target: T1, BACE1 (Homo sapiens, UniProt P56817); experiment: In Vitro BACE Cell-based Assay (HEK cell assay): Aβ40 in conditioned medium of cells stably expressing Amyloid Precursor Protein, sandwich ELISA; conditions: read-out: HEK cell assay
Method in brief: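 First, APP-stable cells grow 24 h at 37° C., 5% CO2. Next, test compounds are added for 24 h (10 doses, 0.1% DMSO). Finally, medium Aβ40 is determined by pAb40/6E10 sandwich ELISA with Europium TRF, and IC50 is calculated.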

[2] = target: T1, BACE1; experiment: In Vitro Enzymatic BACE FRET (Fluorescence Resonance Energy Transfer) Assay; assay type: biochemical; conditions: read-out: BACE1 FRET assay
Method in brief: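 Run in 0.05 M acetate pH 4.2 with 10% DMSO final and 100 uM genapol detergent below its CMC. Reaction was started with 50 nM FRET peptide substrate (fluorophore and quencher flanking the BACE cleavage site), incubated one hour, stopped with Tris to neutral pH, and fluorescence read.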

[3] = Table II, Aβ40, 24 h incubation

T1 sequence (P56817 46-501, species assumed): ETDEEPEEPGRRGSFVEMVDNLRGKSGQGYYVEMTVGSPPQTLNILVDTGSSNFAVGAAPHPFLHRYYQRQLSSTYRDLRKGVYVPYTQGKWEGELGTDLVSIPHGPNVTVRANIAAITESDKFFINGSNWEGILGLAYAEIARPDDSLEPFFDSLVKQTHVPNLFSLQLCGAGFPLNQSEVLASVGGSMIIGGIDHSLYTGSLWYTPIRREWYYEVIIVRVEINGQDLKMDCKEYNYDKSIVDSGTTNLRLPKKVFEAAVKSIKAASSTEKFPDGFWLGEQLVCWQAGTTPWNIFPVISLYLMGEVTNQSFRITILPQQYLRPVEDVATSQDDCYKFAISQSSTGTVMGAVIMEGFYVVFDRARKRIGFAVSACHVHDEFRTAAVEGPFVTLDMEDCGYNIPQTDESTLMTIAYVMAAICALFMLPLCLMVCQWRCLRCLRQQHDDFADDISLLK

SMILES | IC50 ([1]; Table IV, class symbols) [µM] | IC50 ([2]; Table IV, class symbols) [µM] | IC50 [2] [µM] | also measured
CC(C)(C)COc1ccc2c(c1)C1(COC(N)=N1)c1cc(NC(=O)c3ccc(Cl)cn3)ccc1O2 (centres unmarked) [compound 522] | – | – | < 0.1 | IC50 ([1]; HEK cells): < 0.1 µM
COc1ccc2c(c1)[C@]1(COC(N)=N1)c1cc(-c3cncnc3)cnc1O2 [Example 54, (5R)-7-methoxy-3-(5-pyrimidinyl)spiro[chromeno[2,3-b]pyridine-5,4′-[1,3]oxazol]-2′-amine] | – | – | – | IC50 [1, 3]: > 5 µM; IC50 ([2]; Table II): 1 to 5 µM
CC(C)(C)C#Cc1ccc2c(c1)[C@]1(COC(N)=N1)c1cc(Oc3ccccn3)ccc1O2 [Example 112, (4R)-2′-(3,3-dimethyl-1-butyn-1-yl)-7′-(2-pyridinyloxy)spiro[1,3-oxazole-4,9′-xanthen]-2-amine] | – | – | – | IC50 ([1]; Table III, IC50's in uM ranges): 0.1 to 1 µM; IC50 ([2]; Table III, IC50's in uM ranges): < 0.1 µM
Cc1ccccc1-c1ccc2c(c1)[C@]1(COC(N)=N1)c1cccnc1O2 [compound 609] | > 5 | > 5 | – | –
COc1ccc2c(c1)[C@]1(COC(N)=N1)c1cc(NC(=O)c3ccccn3)ccc1O2 [compound 615] | 0.1 to 1 | 0.1 to 1 | – | –
CC1(C)CN(c2cnc3c(c2)[C@]2(COC(N)=N2)c2cc(-c4cccnc4F)ccc2O3)CCO1 [compound 463] | – | – | < 0.1 | IC50 ([1]; HEK cells): < 0.1 µM
NC1=N[C@]2(CO1)c1cc(OCC3CCCC3)ccc1Oc1ccc(-c3cncnc3)cc12 [Example 74, (4S)-2′-(cyclopentylmethoxy)-7′-(5-pyrimidinyl)spiro[1,3-oxazole-4,9′-xanthen]-2-amine] | – | – | – | IC50 [1, 3]: < 0.1 µM; IC50 ([2]; Table II): < 0.1 µM
CC1(C)CC(c2cc3c(cc2F)Oc2ccc(-c4cncnc4)cc2[C@@]32COC(N)=N2)=CC(=O)O1 [compound 524] | – | – | < 0.1 | IC50 ([1]; HEK cells): < 0.1 µM
COCC(=O)Nc1ccc2c(c1)[C@@]1(COC(N)=N1)c1cc(OC)ccc1O2 [compound 613] | 0.1 to 1 | 0.1 to 1 | – | –
CC(C)(F)COc1ccc2c(c1)[C@]1(COC(N)=N1)c1cc(-c3cncnc3)cnc1O2 [compound 176] | – | – | – | IC50 ([1]; Table III, IC50's in uM ranges): 0.1 to 1 µM; IC50 ([2]; Table III, IC50's in uM ranges): < 0.1 µM
NC1=N[C@@]2(CO1)c1cc(-c3cccnc3F)ccc1Oc1ccc(-c3ccncc3)nc12 [compound 402] | – | – | – | IC50 ([1]; HEK cell-based assay, Aβ40 in conditioned medium, IC50 class symbols): < 0.1 µM; IC50 ([2]; in vitro BACE FRET enzyme assay, IC50 class symbols): < 0.1 µM
NC1=N[C@@]2(CO1)c1cc(-c3ccccc3F)ccc1Oc1ncc(N3CCOCC3)cc12 [compound 460] | – | – | < 0.1 | IC50 ([1]; HEK cells): 0.1 to 1 µM

Second part, led by results:

IC50 ([1]; Table IV, class symbols) [µM] | IC50 ([2]; Table IV, class symbols) [µM] | IC50 [2] [µM] | SMILES | also measured
1 to 5 | 0.1 to 1 | – | CC(C)(C)C#Cc1ccc2c(c1)[C@]1(COC(N)=N1)c1cc(C3=CCOCC3)ncc1O2 [compound 800] | –
0.1 to 1 | < 0.1 | – | CC(C)C(O)COc1ccc2c(c1)[C@]1(COC(N)=N1)c1cc(-c3cccnc3)ccc1O2 (some centres unmarked) [compound 866] | –
0.1 to 1 | < 0.1 | – | CC(C)(C)COc1ccc2c(c1)[C@]1(COC(N)=N1)c1cc(C3CCCCO3)ccc1O2 (some centres unmarked) [compound 656] | –
– | – | 0.1 to 1 | COc1ncc(-c2ccc3c(c2)[C@@]2(COC(N)=N2)c2cc(OCC(C)(C)C)ccc2O3)cn1 [compound 977] | IC50 [1]: 1 to 5 µM
– | – | 0.1 to 1 | COc1ccc(-c2ccc3c(c2)[C@@]2(COC(N)=N2)c2cc(C#CC(C)(C)OC)cnc2O3)cn1 [compound 767] | IC50 [1]: 0.1 to 1 µM
0.1 to 1 | < 0.1 | – | COc1ccc2c(c1)[C@]1(COC(N)=N1)c1c(ccc(-c3cncnc3)c1F)O2 [compound 814] | –
< 0.1 | < 0.1 | – | CC(C)(C)COc1ccc2c(c1)[C@@]1(COC(N)=N1)c1cc(-c3ccccc3)cnc1O2 [compound 807] | –
– | – | 0.1 to 1 | CNCc1ccc(-c2ccc3c(c2)[C@]2(COC(N)=N2)c2cc(OCC(C)(C)C)ccc2O3)cc1 [compound 784] | IC50 [1]: 1 to 5 µM
– | – | < 0.1 | CC(C)(C)COc1ccc2c(c1)[C@@]1(COC(N)=N1)c1cc(-c3cncc(F)c3)cnc1O2 [compound 753] | IC50 [1]: < 0.1 µM
> 5 | > 5 | – | CC(C)(C)OC(=O)Cc1ccc2c(c1)[C@@]1(COC(N)=N1)c1cc(Br)ccc1O2 [compound 858] | –
